Reference: patent US20120316062A1 (priority 2009, published 2012)
Like-named read-outs stand apart in the source and are kept apart here.

Tests used:
[1] = tested on: Pyricularia oryzae; type: cell-based; conditions: single active, growth at 405 nm 7 days after inoculation, 18° C
[2] = tested on: Alternaria solani; test: Activity against Alternaria solani in the microtiterplate test; type: cell-based; conditions: single active, growth at 405 nm 7 days after inoculation, 18° C

## O=C(NC(=O)c1c(F)cccc1F)Nc1ccc(Oc2ccc(C(F)(F)F)cc2Cl)cc1F [flufenoxuron]
[1]; 1 ppm
  Observed efficacy: 6
[2]; 16 ppm
  Observed efficacy: 0

## COC(=O)N(OC)c1ccccc1COc1ccn(-c2ccc(Cl)cc2)n1 [pyraclostrobin]
[1]; 0.004 ppm
  Observed efficacy: 23
[2]; 0.063 ppm
  Observed efficacy: 56
